Where a SMILES comes first, the peptide text is derived from it.
Target: T1, β-catenin (Homo sapiens, UniProt P35222)
T1 sequence (P35222 1-781): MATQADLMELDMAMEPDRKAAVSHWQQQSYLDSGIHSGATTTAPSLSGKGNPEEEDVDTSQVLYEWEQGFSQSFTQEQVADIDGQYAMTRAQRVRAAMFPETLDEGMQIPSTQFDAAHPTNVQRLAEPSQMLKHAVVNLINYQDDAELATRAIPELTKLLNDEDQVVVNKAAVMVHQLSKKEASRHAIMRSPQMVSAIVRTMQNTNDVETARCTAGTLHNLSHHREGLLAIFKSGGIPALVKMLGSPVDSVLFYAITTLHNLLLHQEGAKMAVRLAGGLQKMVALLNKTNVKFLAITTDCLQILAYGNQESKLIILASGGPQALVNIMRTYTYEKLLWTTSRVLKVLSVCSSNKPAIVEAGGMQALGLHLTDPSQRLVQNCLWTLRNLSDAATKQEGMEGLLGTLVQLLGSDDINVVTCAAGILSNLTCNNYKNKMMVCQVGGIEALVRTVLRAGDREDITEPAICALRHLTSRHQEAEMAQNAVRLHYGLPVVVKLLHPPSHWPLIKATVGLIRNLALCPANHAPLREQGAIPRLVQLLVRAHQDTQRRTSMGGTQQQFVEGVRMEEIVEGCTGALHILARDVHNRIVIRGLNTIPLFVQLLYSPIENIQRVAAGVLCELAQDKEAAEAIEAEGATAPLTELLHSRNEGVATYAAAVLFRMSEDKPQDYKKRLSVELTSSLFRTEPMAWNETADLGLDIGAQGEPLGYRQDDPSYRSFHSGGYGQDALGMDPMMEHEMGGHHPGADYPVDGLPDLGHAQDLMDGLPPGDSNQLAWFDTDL
Test: KD50 measurement using competitive fluorescence polarization (FP) with labelled TCF4
Format: binding
Conditions: fluorescence polarization, β-catenin; for Kd: read-out: β-Cat FP KD
Source text: Fluorescence polarization (FP) is another method used to analyze protein-ligand interactions. This methodology measures the change in fluorescence light emitted by a labelled compound free vs. conjugated to another compound in solution. Upon binding of the fluorescent molecule to a complex, polarization increases because of limited rotation of the fluorescent tracer. Competitive FP is often utilized in drug screens as it is formatted for high throughput screens in a plate format. This immunoassay is performed by introducing a non-conjugated drug to compete for binding to the labelled competitor-ligand complex, leading to a reduction in polarization. TCF4 protein is utilized for the competitive assay as (1) this protein influences the full activation of the Wnt pathway and (2) shares homology with the β-catenin inhibitors. Exemplary methodology is described in Example 13. Data were analyzed and plotted in Microsoft Excel (Microsoft, Redmond, WA).
5 nM of labelled TCF4 protein was added to solution of 100 nM of β-catenin and incubated at room temperature in 96-well plates (Greiner 96 Flat transparent plates, Millipore Sigma, Carlsbad CA). Varying concentrations of β-catenin inhibitor candidate (SEQ ID NO: 404) were then added in a series of serial dilutions from 10 nM to 30 uM of inhibitor in different wells of the plate. The fluorescence polarization was read by Infinite M1000 (Tecan, Baldwin Park CA) at excitation wavelength of 470 nm and measured at emission wavelength of 520 nm. […] The experiments were performed three times and data were analyzed and plotted in Microsoft Excel (Microsoft, Redmond, WA).

| Compound | β-Cat FP Hill slope | Kd |
| --- | --- | --- |
| CC[C@H](C)[C@@H]1NC(=O)[C@H](CC(C)C)NC(=O)[C@H](Cc2ccccc2)NC(=O)[C@H](Cc2c[nH]c3ccccc23)NC(=O)CCCCCNC(=O)C[C@@H](C(=O)O)NC(=O)[C@H](Cc2c[nH]c3ccccc23)NC(=O)[C@H](C)NC(=O)[C@H](CS)NC1=O [compound 245] (HELM PEPTIDE1{[O=C(CCCCCN[*:1])[*:2]].W.F.L.I.C.A.W.D}$PEPTIDE1,PEPTIDE1,1:R1-9:R3$$$V2.0) | 1.28 | < 400 nM |
| CC[C@H](C)[C@H](NC(=O)[C@@H](N)CC(C)C)C(=O)N[C@@H](CO)C(=O)N[C@@H](Cc1ccccc1)C(=O)N[C@@H](Cc1c[nH]c2ccccc12)C(=O)NCC(=O)O [compound 237] (H-LISFWG-OH) | 0.72 | > 30000 nM |
| CCCCCCCCCCCC(=O)N[C@@H](CCC(=O)O)C(=O)N[C@@H](CC(=O)O)C(=O)N1CCC[C@H]1C(=O)N[C@@H](CCC(N)=O)C(=O)N[C@H]1CCCCNC(=O)CC[C@@H](C(=O)N[C@@H](Cc2c[nH]cn2)C(=O)N[C@@H](CC(C)C)C(=O)N[C@@H](CCC(N)=O)C(=O)N[C@@H](CCCNC(=N)N)C(=O)N[C@H](C(=O)N[C@@H](CC(C)C)C(=O)N[C@@H](CCCCN)C(N)=O)C(C)C)NC(=O)[C@H](CC(=O)O)NC(=O)[C@H](CC(C)C)NC(=O)[C@H]([C@@H](C)CC)NC1=O [compound 444] (HELM PEPTIDE1{[CCCCCCCCCCCC(=O)[*:2]].E.D.P.Q.K.I.L.D.E.H.L.Q.R.V.L.K.[am]}$PEPTIDE1,PEPTIDE1,6:R3-10:R3$$$V2.0) | – | < 400 nM |
| CCCCCCCCCCCC(=O)N[C@@H](Cc1c[nH]c2ccccc12)C(=O)N1CCC[C@H]1C(=O)N[C@@H](CCC(N)=O)C(=O)N[C@@H](CO)C(=O)N[C@H](C(=O)N[C@@H](CC(C)C)C(=O)N[C@@H](CC(=O)O)C(=O)N[C@H]1CCCCNC(=O)C[C@@H](C(=O)N[C@H](C(=O)N[C@@H](Cc2c[nH]c3ccccc23)C(N)=O)C(C)C)NC(=O)[C@H](CCC(N)=O)NC(=O)[C@H](C2CCCCC2)NC(=O)[C@H](Cc2c[nH]cn2)NC1=O)[C@@H](C)CC [compound 463] (HELM PEPTIDE1{[CCCCCCCCCCCC(=O)[*:2]].W.P.Q.S.I.L.D.K.H.[O=C([C@@H](N[*:1])C1CCCCC1)[*:2]].Q.D.V.W.[am]}$PEPTIDE1,PEPTIDE1,9:R3-13:R3$$$V2.0) | – | < 400 nM |
| CC[C@H](C)[C@@H]1NC(=O)[C@@H](NC(=O)[C@H](CCC(N)=O)NC(=O)[C@H](C)N(C)C(=O)[C@H](Cc2c[nH]c3ccccc23)NC(C)=O)CCCCNC(=O)CC[C@@H](C(=O)N[C@@H](Cc2c[nH]cn2)C(=O)N[C@H](C(=O)NC(C)(C)C(=O)N[C@@H](CCCNC(=N)N)C(=O)N[C@H](C(=O)N[C@@H](Cc2c[nH]c3ccccc23)C(=O)NCC(N)=O)C(C)C)C2CCCCC2)NC(=O)[C@H](CC(=O)O)NC(=O)[C@H](CC(C)C)NC1=O [compound 414] (HELM PEPTIDE1{[ac].W.[meA].Q.K.I.L.D.E.H.[O=C([C@@H](N[*:1])C1CCCCC1)[*:2]].[Aib].R.V.W.G.[am]}$PEPTIDE1,PEPTIDE1,5:R3-9:R3$$$V2.0) | 0.7 | < 400 nM |
| CC[C@@H]1NC(=O)[C@H]([C@@H](C)CC)NC(=O)[C@H](CC(C)C)NC(=O)[C@H](Cc2ccccc2)NC(=O)[C@H](Cc2c[nH]c3ccccc23)NC(=O)[C@@H](NC(C)=O)CCCCNC(=O)C[C@@H](C(=O)O)NC(=O)[C@H](Cc2c[nH]c3ccccc23)NC(=O)[C@H](C)NC1=O [compound 243] (HELM PEPTIDE1{[ac].K.W.F.L.I.[Abu].A.W.D}$PEPTIDE1,PEPTIDE1,2:R3-10:R3$$$V2.0) | 0.7 | 10000 to 30000 nM |
| CCCCCCCCCCCC(=O)N[C@@H](Cc1c[nH]c2ccccc12)C(=O)N(C)[C@@H](C)C(=O)N[C@@H](CCC(N)=O)C(=O)N[C@@H](CO)C(=O)N[C@H](C(=O)N[C@@H](CC(C)C)C(=O)N[C@@H](CC(=O)O)C(=O)N[C@H]1CCC(=O)NCCCC[C@@H](C(=O)N[C@H](C(=O)N[C@@H](Cc2c[nH]c3ccccc23)C(=O)NCC(N)=O)C(C)C)NC(=O)[C@H](CCC(N)=O)NC(=O)[C@H](C(C)C)NC(=O)[C@H](Cc2c[nH]cn2)NC1=O)[C@@H](C)CC [compound 439] (HELM PEPTIDE1{[CCCCCCCCCCCC(=O)[*:2]].W.[meA].Q.S.I.L.D.E.H.V.Q.K.V.W.G.[am]}$PEPTIDE1,PEPTIDE1,9:R3-13:R3$$$V2.0) | – | < 400 nM |
| CC[C@H](C)[C@@H]1NC(=O)[C@@H](NC(=O)[C@H](CCC(N)=O)NC(=O)[C@@H]2CCCN2C(=O)[C@H](Cc2c[nH]c3ccccc23)NC(=O)[C@H](CCCNC(=N)N)NC(=O)[C@H](CCCNC(=N)N)NC(C)=O)CCCCNC(=O)CC[C@@H](C(=O)N[C@@H](Cc2c[nH]cn2)C(=O)N[C@H](C(=O)N[C@@H](CCCNC(=N)N)C(=O)N[C@@H](CCCNC(=N)N)C(=O)N[C@H](C(=O)N[C@@H](Cc2c[nH]c3ccccc23)C(=O)N[C@@H](CCCNC(=N)N)C(N)=O)C(C)C)C(C)C)NC(=O)[C@H](CC(=O)O)NC(=O)[C@H](CC(C)C)NC1=O [compound 429] (HELM PEPTIDE1{[ac].R.R.W.P.Q.K.I.L.D.E.H.V.R.R.V.W.R.[am]}$PEPTIDE1,PEPTIDE1,7:R3-11:R3$$$V2.0) | 0.7 | 400 to 1000 nM |
| CC[C@H](C)[C@@H]1NC(=O)[C@@H](NC(=O)C(C)(C)NC(=O)[C@H](C)N(C)C(=O)[C@@H](N)Cc2c[nH]c3ccccc23)CCCCNC(=O)CC[C@@H](C(=O)N[C@@H](Cc2c[nH]cn2)C(=O)N[C@H](C(=O)N[C@@H](CCC(N)=O)C(=O)N[C@@H](CCCNC(=N)N)C(=O)N[C@H](C(=O)N[C@@H](Cc2c[nH]c3ccccc23)C(=O)NCC(N)=O)C(C)C)C2CCCCC2)NC(=O)[C@H](CC(=O)O)NC(=O)[C@H](CC(C)C)NC1=O [compound 417] (HELM PEPTIDE1{W.[meA].[Aib].K.I.L.D.E.H.[O=C([C@@H](N[*:1])C1CCCCC1)[*:2]].Q.R.V.W.G.[am]}$PEPTIDE1,PEPTIDE1,4:R3-8:R3$$$V2.0) | 0.93 | < 400 nM |
| CCCCCCCCCCCC(=O)N[C@@H](Cc1c[nH]c2ccccc12)C(=O)N(C)[C@@H](C)C(=O)N[C@@H](CCC(N)=O)C(=O)N[C@@H](CO)C(=O)N[C@H](C(=O)N[C@@H](CC(C)C)C(=O)N[C@@H](CC(=O)O)C(=O)N[C@H]1CCC(=O)NCCCC[C@@H](C(=O)N[C@H](C(=O)N[C@@H](Cc2c[nH]c3ccccc23)C(N)=O)C(C)C)NC(=O)[C@H](CCC(N)=O)NC(=O)[C@H](C2CCCCC2)NC(=O)[C@H](Cc2c[nH]cn2)NC1=O)[C@@H](C)CC [compound 467] (HELM PEPTIDE1{[CCCCCCCCCCCC(=O)[*:2]].W.[meA].Q.S.I.L.D.E.H.[O=C([C@@H](N[*:1])C1CCCCC1)[*:2]].Q.K.V.W.[am]}$PEPTIDE1,PEPTIDE1,9:R3-13:R3$$$V2.0) | – | < 400 nM |
| H-GGGDDLGANDELISFKDEGEQEEKSSENSSAERDLADVKSSLVNEK-NH2 [compound 266] | 0.88 | < 400 nM |
| CC[C@H](C)[C@@H]1NC(=O)[C@H](CC(C)C)NC(=O)[C@H](Cc2ccccc2)NC(=O)[C@H](Cc2c[nH]c3ccccc23)NC(=O)[C@@H](N)CCCCNC(=O)CCNC(=O)C[C@@H](C(=O)O)NC(=O)[C@H](Cc2c[nH]c3ccccc23)NC(=O)[C@H](C)NC(=O)[C@H](CS)NC1=O [compound 260] (HELM PEPTIDE1{K.W.F.L.I.C.A.W.[O=C(O)[C@H](CC(=O)[*:2])N[*:1]].[bAla]}$PEPTIDE1,PEPTIDE1,1:R3-10:R2$$$V2.0) | 1.53 | 1000 to 10000 nM |
| CC[C@H](C)[C@@H]1NC(=O)[C@@H](NC(=O)[C@H](CCC(N)=O)NC(=O)[C@H](C)N(C)C(=O)[C@H](Cc2c[nH]c3ccccc23)NC(C)=O)CCCCNC(=O)CC[C@@H](C(=O)N[C@@H](Cc2c[nH]cn2)C(=O)N[C@H](C(=O)N[C@@H](CCC(N)=O)C(=O)N[C@@H](CCCNC(=N)N)C(=O)N[C@H](C(=O)N[C@@H](Cc2c[nH]c3ccccc23)C(N)=O)C(C)C)C2CCCCC2)NC(=O)[C@H](CC(=O)O)NC(=O)[C@H](CC(C)C)NC1=O [compound 446] (HELM PEPTIDE1{[ac].W.[meA].Q.K.I.L.D.E.H.[O=C([C@@H](N[*:1])C1CCCCC1)[*:2]].Q.R.V.W.[am]}$PEPTIDE1,PEPTIDE1,5:R3-9:R3$$$V2.0) | 0.7 | < 400 nM |
